The record followed here is ChEMBL document CHEMBL5226379, “Hypouricemic Actions of the Pericarp of Mangosteen in Vitro and in Vivo” (J Nat Prod, 2023).

Assay [1] concerns the target T1, Solute carrier family 22 member 12 (Homo sapiens, UniProt Q96S37).
T1 sequence (Q96S37 whole entry): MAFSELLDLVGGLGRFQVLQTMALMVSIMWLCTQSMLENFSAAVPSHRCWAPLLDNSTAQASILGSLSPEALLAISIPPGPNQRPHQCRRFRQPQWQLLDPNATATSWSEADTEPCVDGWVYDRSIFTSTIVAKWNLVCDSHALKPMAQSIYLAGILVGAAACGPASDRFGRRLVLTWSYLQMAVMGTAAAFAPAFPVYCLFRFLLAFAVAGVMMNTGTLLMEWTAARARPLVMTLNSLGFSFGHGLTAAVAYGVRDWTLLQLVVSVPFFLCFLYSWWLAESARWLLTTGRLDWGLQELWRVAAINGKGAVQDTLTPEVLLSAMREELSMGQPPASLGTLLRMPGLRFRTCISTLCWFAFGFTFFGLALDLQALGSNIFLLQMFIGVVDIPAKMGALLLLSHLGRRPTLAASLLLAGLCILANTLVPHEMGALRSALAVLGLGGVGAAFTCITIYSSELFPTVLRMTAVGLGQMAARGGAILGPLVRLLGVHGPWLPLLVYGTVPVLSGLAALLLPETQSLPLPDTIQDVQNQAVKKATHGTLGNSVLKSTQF
Briefly: Inhibition of human URAT1-mediated [8-14C]uric acid uptake expressed in HEK293 cells using [8-14C]uric acid as substrate by liquid scintillation counter analysis. The assay is classed as cell-based.

Assay [2] deals with Rattus norvegicus. Nature of the assay: Anti-hyperuricemic activity against potassium oxonate-induced hyperuricemic Sprague-Dawley rat model assessed as serum urate level at 1 mg/kg, po pre-administered via gavage twice daily for 5 times followed by potassium oxonate injection for 1 hrs prior to last dose and measured after 3 hrs. In kind it is functional. The conditions noted are these: time 123 hrs.

In assay [3] the test system is Rattus norvegicus. Briefly: Anti-hyperuricemic activity against potassium oxonate-induced hyperuricemic Sprague-Dawley rat model assessed as urinary creatinine level at 2 mg/kg, po pre-administered via gavage twice daily for 5 times followed by potassium oxonate injection for 1 hrs prior to last dose and measured after 3 hrs. In kind it is functional. To be noted: time 123 hrs.

Assay [4] relates to Rattus norvegicus. Nature of the assay: Anti-hyperuricemic activity against potassium oxonate-induced hyperuricemic Sprague-Dawley rat model assessed as serum urea nitrogen level at 2 mg/kg, po pre-administered via gavage twice daily for 5 times followed by potassium oxonate injection for 1 hrs prior to last dose and measured after 3 hrs. The assay is classed as functional. The conditions noted are these: time 123 hrs.

Assay [5] deals with Rattus norvegicus. Briefly: Anti-hyperuricemic activity against potassium oxonate-induced hyperuricemic Sprague-Dawley rat model assessed as urine volume at 4 mg/kg, po pre-administered via gavage twice daily for 5 times followed by potassium oxonate injection for 1 hrs prior to last dose and measured after 3 hrs. The assay is classed as functional. The conditions noted are these: time 123 hrs.

Assay [6] concerns Mus musculus. Nature of the assay: Hypouricemic activity in potassium oxonate-induced hyperuricemic Kunming mouse model assessed as decrease in serum XOD level at 1 to 4 mg/kg, IG pre-administered via gavage twice daily for 5 times followed by potassium oxonate injection for 1 hrs prior to last dose. The conditions noted are these: dose 1-4 mg/kg, time 5.0 day. In kind it is functional, organism-based.

The source made the active and inactive calls. The rule behind the calls is not given here.

With `COc1c(O)cc2oc3cc(O)c(CC=C(C)C)c(O)c3c(=O)c2c1CC=C(C)C` [MANGOSTIN], inhibition in assay [1] was half-maximal at 58.9 µM (IC50). For the same compound, the Activity was 220 µmol/L in assay [2], 0.8 mmol/L in assay [3], 10.9 mmol/L in assay [4] and 6.2 mL in assay [5]. In addition, in assay [6], the result was inactive.
